US11426367B2, “Methods of treating substance abuse” (Perception Neuroscience, Inc., priority 2018, dated 2022)
“Also recorded” adds a separate entry of the source.

Assays:
[1] = system: rewarding effects of morphine; conditions: Table 11, Suzuki et al., 2000; cited from earlier work
[2] = system: medial forebrain bundle self-stimulation in rats; conditions: doses 5.6, 10 mg/kg, Hillhouse et al., 2014; cited from earlier work
[3] = system: patients with depression; conditions: oral; Non Patent Literatures 15 and 16; cited from earlier work
[4] = system: Morphine Seizures; conditions: Not blocked by naloxone; Kolesnikov et al., 1997; cited from earlier work
[5] = system: development of drug tolerance to ethanol; conditions: tilt-plane test, Khanna et al., 1993; cited from earlier work
[6] = system: Control C57/B6 mice; experiment: Conditioned place preference test (dependence test) in control mice; conditions: control mice, 10 mg/kg
Procedure: 15-minute habituation was performed for 3 days. Then, 30-minute conditioning was performed on day 4 to day 10, and a behavioral evaluation test was performed on day 11. Saline was injected on day 5, day 7, and day 9. […] In each of the groups, the injection was performed three times, i.e., on day 4, day 6, and day 8. Saline means a group injected with saline.
The administration of an agent was performed by the same methods as the methods described in Example 2.
The place preference test was performed using a conditioned place preference test apparatus (BrainScienceIdea Co., Ltd., Osaka, Japan). The analysis of the results of the place preference test was performed by one-way analysis of variance (one-way ANOVA), followed by a least significant difference test (LSD test). Data are presented as the mean plus minus standard error of the mean (n=9 or 10 mice/group). *p<0.05 and **p<0.01 indicate significant differences as compared to a group injected with saline.

[7] = system: medial forebrain bundle self-stimulation in rats; experiment: Intracranial self-stimulation (ICSS), frequency-rate procedure; conditions: for M50, Test, mean log M50 frequency (SEM) / Threshold (T0), Test, mean log T0 frequency (SEM) / M50, Baseline, mean log M50 frequency (SEM) / Threshold (T0), Baseline, mean log T0 frequency (SEM): 10 rats
[8] = system: morphine withdrawal signs in rats; experiment: Naloxone-precipitated withdrawal from subchronic morphine; format: in vivo; conditions: 0.25 mg/kg i.p. before naloxone 1 mg/kg SC, morphine 10 mg/kg SC b.i.d.
Procedure: Forty (40) male Wistar rats served as test subjects in this study. Animals were pair housed with unrestricted access to rodent chow and water (SOP ROD.03.01, SOP ROD.04.01, SOP ROD.18). […] All experimental activity occurring during the animals' light cycle. All animal use procedures were performed in accordance with the principles of the Canadian Council on Animal Care (CCAC).
Forty (40) male Wistar rats were assigned to 5 groups of N=8 rats per group. Group A was dosed with saline vehicle (Sal; subcutaneous (SC) route) twice daily (approx. 08:00±1 h and 18:00±1 h) for 12 days. […] This treatment regimen was designed to induce opioid dependence (Erami et al., 2012). […] On days 9 and 12, rats were tested for naloxone precipitated withdrawal. According to a cross-over design (see Table 4: Treatment Groups), all rats in each group received either acute saline, or naloxone hydrochloride (1 mg/kg; dose volume 2 ml/kg) injection by the SC route, 5 minutes prior to behavioral testing. […] Lofexidine doses are based on literature values (e.g. Shearman et al., 1979). Immediately after vehicle or naloxone injection, rats were transferred to activity chambers for 30 minutes where the animals were visually assessed for somatic signs associated with opioid withdrawal (e.g. writhes, chews, ptosis, WDS, shakes, tremor, penile grooming, body weight change; see Higgins and Sellers, 1994). Simultaneously, the activity pattern (distance travelled, rearing) of each rat was automatically recorded.
Locomotor activity. Spontaneous activity in the rats was measured with the automated Med Associates activity test chamber for 30 minutes with 10-minute time bins. The tracking arena was 17″W×17″L×12″H, sensor bars are secured 1″ above the floor to track distance travelled, and a second set of sensor bars are placed ˜5″ above the floor to measure vertical movement and rearing activity. The parameters set on the tracking software were as follows: resolution—50 milliseconds (ms), box size—4 beams, resting delay—500 ms, and ambulatory trigger—2 (SOP ROD.25). […]

[9] = 3 mg/kg i.p. 2 hours prior to test session
[10] = 10 mg/kg i.p. 2 hours prior to test session
[11] = 30 mg/kg i.p. 2 hours prior to test session
[12] = baseline session before dosing on the 3 mg/kg test day
[13] = baseline session before dosing on the 10 mg/kg test day
[14] = baseline session before dosing on the 30 mg/kg test day

CNC1(c2ccccc2Cl)CCCCC1=O (racemic) [RS(+/−)-ketamine]
Morphine CPP, dose blocking the rewarding effects of morphine [1]: 10 mg/kg | ICSS, anhedonia [2]: 5.6, 10 anhedonia | effective oral doses in patients with depression [3]: 0.5 mg/kg | Morphine Seizures, dose [4]: 0.3 mg/kg | Ethanol Tolerance, dose blocking development of tolerance [5]: 1 - tilt-plane test mg/kg | CPP score (conditioned place preference test) [6]: significantly increased the CPP score

COC(=O)[C@H]1[C@@H](OC(=O)c2ccccc2)C[C@@H]2CC[C@H]1N2C [Cocaine, cocaine]
ICSS frequency-rate response curve ([7]; rats, 10 mg/kg): shifts the frequency curve to the left

CC(Oc1c(Cl)cccc1Cl)C1=NCCN1 (stereo not drawn) [lofexidine, Lofexidine]
overall morphine withdrawal scores (naloxone-precipitated withdrawal signs) [8]: significantly attenuated the naloxone-induced withdrawal signs; also recorded: effective

N[C@@]1(c2ccccc2Cl)CCC[C@@H](O)C1=O [R-hydroxynorketamine]
M50, Test, mean log M50 frequency (SEM) [7, 9]: 2.00 (0.01) log/Hz | Threshold (T0), Test, mean log T0 frequency (SEM) [7, 9]: 1.92 (0.02) log/Hz | M50, Test, mean log M50 frequency (SEM) [7, 10]: 2.00 (0.01) log/Hz | Threshold (T0), Test, mean log T0 frequency (SEM) [7, 10]: 1.90 (0.02) log/Hz | M50, Test, mean log M50 frequency (SEM) [7, 11]: 1.99 (0.02) log/Hz | Threshold (T0), Test, mean log T0 frequency (SEM) [7, 11]: 1.91 (0.03) log/Hz | M50, Baseline, mean log M50 frequency (SEM) [7, 12]: 2.00 (0.02) log/Hz | Threshold (T0), Baseline, mean log T0 frequency (SEM) [7, 12]: 1.89 (0.02) log/Hz | M50, Baseline, mean log M50 frequency (SEM) [7, 13]: 1.98 (0.01) log/Hz | Threshold (T0), Baseline, mean log T0 frequency (SEM) [7, 13]: 1.89 (0.02) log/Hz | M50, Baseline, mean log M50 frequency (SEM) [7, 14]: 1.99 (0.02) log/Hz | Threshold (T0), Baseline, mean log T0 frequency (SEM) [7, 14]: 1.90 (0.02) log/Hz | ICSS frequency-rate response curve ([7]; rats, 3, 10 or 30 mg/kg i.p. 2 hours prior to test session, vs saline vehicle): did not alter the frequency-response function
